Columns and labels:
pT367 EZH2 and pT71 ATF2 = conditions: MYC-CTNNB1 organoids; WNTinib 1 μM, sorafenib 10 μM, SB202190 10 μM; 48 hours time course
Protocol: Tumor organoids were grown in 24 well plates and were collected in Cell Recovery Solution (Corning) after drug treatment. Tumor organoids were left to rotate at 4° C. for one hour in order to dissolve the Matrigel. Tumor organoids were spun down at 300 g at 4° C. for 5 minutes. Pellets were lysed in 2× Laemmli buffer (+4% 2-mercaptoethanol) by heating at 95° C. for 10 minutes followed by 5 seconds of sonication. SDS-PAGE was run using standard procedures.

[1] = system: MYC-Tp53 tumor organoid allografts; assay: MYC-Tp53 tumor organoid allografts; type: in vivo, C57BL/6J mice; conditions: 30 mg/kg daily oral gavage
Protocol: 300,000 cells per allograft were prepared in 8 mg/mL Matrigel. 6-8-week-old C57BL/6J mice were shaved the day prior to injection. A 26^5/8-gauge needle was used to implant organoids into the flank in 100 μL Matrigel. Tumor allografts were measured daily with calipers, and upon an average volumetric measurement of 100 mm^3, animals were randomized and drug dosing was started. Drugs were dosed daily at 30 mg/kg via oral gavage. Tumor allografts were also measured daily.
MYC-CTNNB1 tumor organoids were engrafted into C57BL/6 mice and treatment was started when tumor volume reached 100 mm^3.

[2] = system: KIT and its downstream effector the prenyl-binding protein PDE6D; assay: NanoBRET live cell target engagement, KIT and PDE6D; type: cell-based

SMILES	activity in MYC-Tp53 allografts [1]	also measured
Oc1ccc(-c2nc(-c3ccncc3)c(-c3ccc(F)cc3)[nH]2)cc1 [SB202190]	–	temporal inhibition of pT367 EZH2 and pT71 ATF2 (pT367 EZH2 and pT71 ATF2): transient inhibition
CNC(=O)c1cc(Oc2ccc(NC(=O)Nc3ccc(Cl)c(C(F)(F)F)c3)c(F)c2)ccn1 [regorafenib]	better activity	–
CNC(=O)c1cc(Oc2ccc(NC(=O)Nc3ccc(C(F)(C(F)(F)F)C(F)(F)F)cc3)c(F)c2)ccn1 [8-50-2, 4-(3-fluoro-4-(3-(4-(perfluoropropan-2-yl)phenyl)ureido)phenoxy)-N-methylpicolinamide]	–	binding on KIT and PDE6D, comparison of WNTinib with 8-50-2 [2]: significant differences in binding
COc1cc2nccc(Oc3ccc(NC(=O)NC4CC4)c(Cl)c3)c2cc1C(N)=O [lenvatinib]	better activity	–
